ChEMBL document CHEMBL3808361, “Synthesis of 4-(thiazol-2-ylamino)-benzenesulfonamides with carbonic anhydrase I, II and IX inhibitory activity and cytotoxic effects against breast cancer cell lines” (Bioorg Med Chem, 2016)

Experiments:
[1] = biological target: Carbonic anhydrase 9 (Homo sapiens, UniProt Q16790)
Description: Inhibition of human recombinant CA9 preincubated for 15 mins prior to testing by stopped flow CO2 hydrase assay

[2] = system: MCF7; test: cells; conditions: Homo sapiens, MCF7, 24 h
Description: Cytotoxicity against human MCF7 cells assessed as cell survivability after 24 hrs by crystal violet staining based microscopic analysis

SMILES | Ki [1] [µM] | IC50 [2] [µM]
NS(=O)(=O)c1ccc(Nc2csc(Nc3ccc(S(N)(=O)=O)cc3)n2)cc1 | 0.0073 | 21.5
NS(=O)(=O)c1ccc(Nc2nc(N3CCCCC3)cs2)cc1 | 0.0067 | 24.3
NS(=O)(=O)c1ccc(Nc2nc(Nc3ccc(F)cc3)cs2)cc1 | 0.0056 | 12
N#Cc1c(-c2ccccc2)nc(Sc2csc(Nc3ccc(S(N)(=O)=O)cc3)n2)[nH]c1=O | – | > 150
CN(C)c1ccc(-c2nc(NNc3csc(Nc4ccc(S(N)(=O)=O)cc4)n3)[nH]c(=O)c2C#N)cc1 | – | 89.7
CN(C)c1ccc(/C=C2\N=C(c3ccccc3)N(Nc3csc(Nc4ccc(S(N)(=O)=O)cc4)n3)C2=O)cc1 | – | 38.9
NS(=O)(=O)c1ccc(Nc2nc(Nc3ccc(C(=O)O)cc3)cs2)cc1 | 0.0088 | 22.1
N#Cc1c(-c2ccccc2)nc(NNc2csc(Nc3ccc(S(N)(=O)=O)cc3)n2)[nH]c1=O | 0.0065 | > 150
NS(=O)(=O)c1ccc(Nc2nc(NN3C(=O)/C(=C/c4ccccc4)N=C3c3ccc(Cl)cc3)cs2)cc1 | – | > 150
NS(=O)(=O)c1ccc(Nc2nc(NN3C(=O)/C(=C/c4ccc(Cl)cc4)N=C3c3ccccc3)cs2)cc1 | 0.0292 | > 150
N#Cc1c(-c2ccc(Cl)cc2)nc(Sc2csc(Nc3ccc(S(N)(=O)=O)cc3)n2)[nH]c1=O | – | 86.6
NS(=O)(=O)c1ccc(NC2=NC(=O)/C(=N/Nc3ccc(Cl)cc3)S2)cc1 | – | 10.7
NS(=O)(=O)c1ccc(N/N=C2\SC(Nc3ccc(S(N)(=O)=O)cc3)=NC2=O)cc1 | 0.0058 | 2.79
CN(C)c1ccc(/C=C2\N=C(c3ccc(Cl)cc3)N(Nc3csc(Nc4ccc(S(N)(=O)=O)cc4)n3)C2=O)cc1 | – | 44.5
NS(=O)(=O)c1ccc(Nc2nc(NN3C(=O)/C(=C/c4ccc(Cl)cc4)N=C3c3ccc(Cl)cc3)cs2)cc1 | – | 136
NS(=O)(=O)c1ccc(NC2=NC(=O)/C(=N/Nc3ccc(C(=O)O)cc3)S2)cc1 | 0.0064 | 5.45
O=c1[nH]cc(F)c(=O)[nH]1 [FLUOROURACIL] | – | 11.1
NC(N)=NS(=O)(=O)c1ccc(N/N=C2\SC(Nc3ccc(S(N)(=O)=O)cc3)=NC2=O)cc1 | 0.0085 | 11.9
NS(=O)(=O)c1ccc(Nc2nc(NN3C(=O)/C(=C/c4ccccc4)N=C3c3ccccc3)cs2)cc1 | – | 45.9
N#Cc1c(-c2ccc(Cl)cc2)nc(NNc2csc(Nc3ccc(S(N)(=O)=O)cc3)n2)[nH]c1=O | – | > 150
CN(C)c1ccc(-c2nc(Sc3csc(Nc4ccc(S(N)(=O)=O)cc4)n3)[nH]c(=O)c2C#N)cc1 | – | 85
